Where “and” joins values, the source holds several entries; their conditions need not be identical. Identical values can stand only once.
What was measured:
[1] = Leucine bioavailability (plasma leucine from dry blood spots) in aged mice; format: in vivo
Experimental: Aged mice (animal model: see example 1) were fed with one of the 4 supplements at TO and after 10 minutes a droplet of blood from the tail was collected and stamped on a card. […] The results are plotted in FIG. 2A. Since feces was not collected, it was not possible to precisely calculate the N in- and output. […] Summarized, the amount of leucine present in the intact protein was known from the analyses of the pure protein sources (data sheets available). […] Since fasted mice also show a baseline level of plasma leucine, these values were then deducted from the obtained leucine plasma values (column D in table below). […] It was then calculated the contribution of the increase from the intact Leu (column E) and from the added free leucine (column F).

[2] = system: Muscle Protein Synthesis (MPS); conditions: same experimental protocol, earlier work; cited from earlier work

bioavailability factor of leucine (rise of plasma leucine per mg of leucine consumed) [1]: 17.4 mmol/L/mg and 17.3 mmol/L/mg
Compound: CC(C)C[C@H](N)C(=O)O [free leucine, L-leucine]
anabolic (MPS) response in aged mice, Dijk (2018) [2]: did not show an anabolic response

Source: patent US20240269215A1, “NUTRITIONAL COMPOSITION FOR MUSCLE MASS, STRENGTH AND FUNCTION” (N.V. Nutricia, priority 2021, published 2024)
